This is an account of results in patent US20250090627A1, “NUTRITIONAL POLYPEPTIDE HAVING BRANCHED-STRUCTURE WITH EFFICIENT BROAD-SPECTRUM ANTIBACTERIAL AND ANTIFUNGAL FUNCTIONS” (ZHEJIANG UNIVERSITY, priority 2022, published 2025).

Series [1] deals with methicillin-resistant Staphylococcus aureus. The experiment in a line: antibacterial effect against drug-resistant bacteria. It counts as cell-based. The settings on record: 100 μg/mL. As to the method:
The above polypeptide (prepared by Method 1) was added in methicillin-resistant Staphylococcus aureus solutions at concentrations of 10^8 and 10^9 CFU/mL respectively according to the polypeptide concentration gradient, and then co-cultured at 37° C. for 24 hours. The polypeptide was effective in killing methicillin-resistant Staphylococcus aureus in the effective concentration range. The antimicrobial rate of 100 μg/mL of polypeptide solution could reach up to 100% (FIG. 2) and 98% or more (FIG. 3) respectively.

Another series deals with fibroblasts. The experiment in a line: cell viability of fibroblasts, Cell Counting Kit-8. The note with it: DMEM with 10% fetal bovine serum, 48 h, effective concentration range (FIG. 4). It counts as cell-based. On the procedure:
The polypeptide (prepared by Method 2) of the disclosure was added at different concentrations to Dulbecco's Modified Eagle's Medium (DMEM) containing fetal bovine serum (10% by volume) and used to culture fibroblasts. Cells were seeded at 10,000 cells per well in 96-well plates, incubated at 37° C. with a medium containing polypeptides at various concentrations as described above, and the cell viability was determined after 48 h using the Cell Counting Kit-8 method.
(Formazan colour is commonly taken as a measure of viable cells.)

The test system of another series is Staphylococcus aureus. Kind of series: antibacterial effect, polypeptide co-cultured with microbe. The series is classed as cell-based. The note with it: polypeptide 250 μg/mL; 10^8 CFU/mL; co-cultured at 37° C. for 24 hours.
Another series deals with Candida albicans. Described as above. It counts as cell-based. The settings on record: polypeptide 250 μg/mL; 10^8 CFU/mL; co-cultured at 37° C. for 24 hours.
Series [2] deals with rats. The experiment in a line: safety (acute systemic inflammation) after caudal vein injection, blood routine examination. It counts as in vivo. As to the method: (§1) The polypeptide (prepared by Method 1) of the present disclosure was dissolved in physiological saline at a concentration of 1 mg/mL and injected into rats through the caudal vein at a dose of 8 mg/kg.
Another series relates to Escherichia coli. The experiment in a line: antibacterial effect, polypeptide co-cultured with microbe. It counts as cell-based. The note with it: polypeptide 250 μg/mL; 10^8 CFU/mL; co-cultured at 37° C. for 24 hours.
Another series deals with Pseudomonas aeruginosa. The series is described as above. It counts as cell-based. The note with it: polypeptide 250 μg/mL; 10^8 CFU/mL; co-cultured at 37° C. for 24 hours.
Series [3] has as its system rats. The experiment in a line: in vivo hemocompatibility after caudal vein injection, blood routine examination. As to the method:
as §1

The mark [4] stands for this setting: MRSA 10^8 CFU/mL, 37° C. 24 hours (FIG. 2).
Where [5] appears, read: MRSA 10^9 CFU/mL, 37° C. 24 hours (FIG. 3).
Where [6] appears, read: 1 mg/mL in physiological saline, caudal vein, 8 mg/kg, 24 h.
Setting [7] is: rat blood, 24 h after 8 mg/kg caudal vein injection (FIG. 5).
Where [8] appears, read: rat blood 24 h after 8 mg/kg caudal vein injection.

On to `CC1(C)S[C@@H]2[C@H](NC(=O)Cc3ccccc3)C(=O)N2[C@H]1C(=O)O` [penicillin G, reference compound], for which the antimicrobial rate result in series [1] (setting [4]) and in series [1] (setting [5]) was “less than 10%” in each case.

For the compound “hyperbranched polylysine [polypeptide (prepared by Method 2)]”, in the series with fibroblasts, the “cytotoxicity (cell viability)” value is “not cytotoxic”.

For the compound “hyperbranched polylysine [polypeptide (prepared by Method 1)]”, the antibacterial effect in the series on Staphylococcus aureus came to 100%. The compound further had an antibacterial effect in the series on Candida albicans of 100%. The behavior of rats result in the series with rats [2] (setting [6]) is given as “no abnormal behavior”. Also, the survival of rats entry with rats [2] (1 mg/mL in physiological saline, caudal vein, 8 mg/kg, after 24 h) is “still alive”. Also, the inflammatory features result in the series on rats [2] (rat blood routine examination, 24 h after 8 mg/kg caudal vein injection) was “no inflammatory features”. Besides, in the series on rats [2] (setting [7]), the “cell concentration of lymphocytes (Lym)” value is “in the normal range”, the “cell concentration of monocytes (Mon)” value is given as “in the normal range”, the “cell concentration of neutrophils (Neu)” value is given as “in the normal range” and the “cell concentration of white blood cells (WBC)” value is listed as “in the normal range”. The antibacterial effect in the series with Escherichia coli came out at 100%. Besides, in the series on Pseudomonas aeruginosa, the antibacterial effect was determined as 100%. Besides, in series [1] (setting [4]), the antimicrobial rate came out at 100%. The antimicrobial rate in series [1] (setting [5]) was at least 98%. Moreover, in the series with rats [3] (setting [6]), the behavior of rats result was “no abnormal behavior” and the survival of rats result is “survived”. For the same compound, in the series with rats [3] (setting [8]), the “concentration of hemoglobin (HGB), in words” value is given as “in the normal range”; the “concentration of platelet (PLT), in words” value is “in the normal range”; the “concentration of red blood cell (RBC), in words” value was “in the normal range”. The “Red blood cell concentration” value with rats [3] (rat blood 24 h after injection at 1 mg/mL (8 mg/kg), normal range 6.36-9.42) is 6.3 ± 0.3 10^12/L. For the same compound, the Hemoglobin content with rats [3] (rat blood 24 h after injection at 1 mg/mL (8 mg/kg), normal range 110-143) worked out at 141.8 ± 10.1 g/L. Moreover, in the series with rats [3] (rat blood 24 h after injection at 1 mg/mL (8 mg/kg), normal range 450-1590), the Platelet concentration is on record as 847.0 ± 140.1 10^9/L.
